Data taken from ChEMBL document CHEMBL1201862, “PubChem BioAssay data set” (2004).
Calls of active or inactive are those of the source. For most assays here, no stated cut-off is given here; in the data, active = IC50 of 10 µM or less and inactive = more.

Tests used:
[1] = target: T1, Neuropeptides B/W receptor type 1 (Homo sapiens, UniProt P48145); test: Fluorescence-based dose response cell-based high throughput screening assay to identify antagonists of the G-protein coupled receptor 7 (GPR7). [Related pubchem assays: 1952 (Screening assay (GPR7 antagonists).), 1880 (Summary AID.)]; format: functional
T1 sequence (P48145 whole entry): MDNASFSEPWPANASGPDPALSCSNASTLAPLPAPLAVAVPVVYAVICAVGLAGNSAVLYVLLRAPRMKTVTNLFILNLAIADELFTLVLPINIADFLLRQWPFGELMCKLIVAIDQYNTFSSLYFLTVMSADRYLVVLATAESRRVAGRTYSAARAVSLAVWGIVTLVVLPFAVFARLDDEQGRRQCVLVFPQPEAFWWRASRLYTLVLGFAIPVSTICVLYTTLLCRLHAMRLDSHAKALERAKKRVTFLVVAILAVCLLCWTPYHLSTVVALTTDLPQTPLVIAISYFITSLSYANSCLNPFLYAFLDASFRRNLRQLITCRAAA

[2] = target: T2, Neuropeptide Y receptor type 2 (Homo sapiens, UniProt P49146); test: IC50 for human NPY-Y2 blockade – cell-based, counter-screen for NPY-Y1 antagonist project, dose response (AID 1278); format: functional
T2 sequence (P49146 whole entry): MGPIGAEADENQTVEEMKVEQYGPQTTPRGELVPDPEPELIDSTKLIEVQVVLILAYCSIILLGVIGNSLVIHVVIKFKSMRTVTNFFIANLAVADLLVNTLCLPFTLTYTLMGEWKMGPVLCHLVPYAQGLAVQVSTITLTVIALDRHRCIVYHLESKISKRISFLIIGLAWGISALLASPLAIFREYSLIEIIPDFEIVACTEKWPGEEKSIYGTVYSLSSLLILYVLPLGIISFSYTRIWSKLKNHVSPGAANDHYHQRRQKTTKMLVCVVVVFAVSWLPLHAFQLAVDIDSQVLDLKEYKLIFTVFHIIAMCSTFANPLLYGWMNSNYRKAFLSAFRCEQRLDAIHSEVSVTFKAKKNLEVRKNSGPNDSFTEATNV

[3] = target: Melanin-concentrating hormone receptor 1 (Homo sapiens, UniProt Q99705); test: Fluorescence-based counterscreen for antagonists of the G-protein coupled receptor 7 (GPR7): cell-based high throughput dose response assay to identify antagonists of the melanin-concentrating hormone receptor 1 (MCHR1).; format: functional
[4] = target: T3, Neuropeptide Y receptor type 1 (Homo sapiens, UniProt P25929); test: IC50 of human NPY-Y1 blockers – cell-based, dose response (AID 1277); format: functional
T3 sequence (P25929 whole entry): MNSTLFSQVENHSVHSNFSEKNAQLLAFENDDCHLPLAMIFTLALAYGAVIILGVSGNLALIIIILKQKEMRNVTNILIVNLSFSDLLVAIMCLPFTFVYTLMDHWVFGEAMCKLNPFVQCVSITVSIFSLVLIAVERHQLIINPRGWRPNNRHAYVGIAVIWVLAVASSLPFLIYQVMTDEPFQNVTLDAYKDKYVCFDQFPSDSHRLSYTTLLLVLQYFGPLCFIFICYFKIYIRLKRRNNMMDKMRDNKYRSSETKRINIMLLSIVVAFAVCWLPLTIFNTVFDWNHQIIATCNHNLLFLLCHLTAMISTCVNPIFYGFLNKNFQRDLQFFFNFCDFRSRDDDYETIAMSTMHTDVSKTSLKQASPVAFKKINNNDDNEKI

Estrogen receptor = target: T4, Estrogen receptor (Homo sapiens, UniProt P03372); test: ERα coactivator recruitment enhancers – biochemical, TR-FRET, ERα LBD, dose response (AID 737)
T4 sequence (P03372 whole entry): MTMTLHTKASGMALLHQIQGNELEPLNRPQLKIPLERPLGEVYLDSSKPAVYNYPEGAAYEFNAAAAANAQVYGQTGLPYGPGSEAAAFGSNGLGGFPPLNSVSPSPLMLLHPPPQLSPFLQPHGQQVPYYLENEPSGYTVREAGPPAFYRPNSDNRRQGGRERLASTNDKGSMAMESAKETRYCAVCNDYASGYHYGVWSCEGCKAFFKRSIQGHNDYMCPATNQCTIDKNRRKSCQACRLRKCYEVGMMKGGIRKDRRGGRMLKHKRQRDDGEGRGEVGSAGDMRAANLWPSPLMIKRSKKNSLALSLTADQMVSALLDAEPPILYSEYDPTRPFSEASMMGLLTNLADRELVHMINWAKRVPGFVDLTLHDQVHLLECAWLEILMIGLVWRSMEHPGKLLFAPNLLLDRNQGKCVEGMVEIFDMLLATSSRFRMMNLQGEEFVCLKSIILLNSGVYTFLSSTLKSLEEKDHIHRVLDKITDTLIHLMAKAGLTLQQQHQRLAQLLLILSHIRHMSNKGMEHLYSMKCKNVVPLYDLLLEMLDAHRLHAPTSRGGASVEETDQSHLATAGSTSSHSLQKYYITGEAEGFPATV

[5] = target: Sphingosine 1-phosphate receptor 4 (Homo sapiens, UniProt O95977); test: Fluorescence dose response cell-based high throughput screening assay for antagonists of the Sphingosine 1-Phosphate Receptor 4 (S1P4). [Related pubchem assays: 1524 (Confirmation in triplicates.), 1510 (Primary screen.)]; format: functional
[6] = target: Sphingosine 1-phosphate receptor 1 (Homo sapiens, UniProt P21453); format: functional;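 further: Tango beta-arrestin reporter U2OS cells stimulated with S1P near its EC80; inhibitor potency meaning antagonism of receptor activation by the natural agonist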
[7] = target: T5, Microphthalmia-associated transcription factor (Homo sapiens, UniProt O75030); test: reducers of TRPM1 reporter luminescence, concentration series – cell-based, SK-MEL-5, cherry-picked, set 3, MITF inhibitor project, dose response (AID 493073); format: functional;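 further: SK-MEL-5 melanoma cells with luciferase driven by the MITF target TRPM1 promoter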
T5 sequence (O75030 whole entry): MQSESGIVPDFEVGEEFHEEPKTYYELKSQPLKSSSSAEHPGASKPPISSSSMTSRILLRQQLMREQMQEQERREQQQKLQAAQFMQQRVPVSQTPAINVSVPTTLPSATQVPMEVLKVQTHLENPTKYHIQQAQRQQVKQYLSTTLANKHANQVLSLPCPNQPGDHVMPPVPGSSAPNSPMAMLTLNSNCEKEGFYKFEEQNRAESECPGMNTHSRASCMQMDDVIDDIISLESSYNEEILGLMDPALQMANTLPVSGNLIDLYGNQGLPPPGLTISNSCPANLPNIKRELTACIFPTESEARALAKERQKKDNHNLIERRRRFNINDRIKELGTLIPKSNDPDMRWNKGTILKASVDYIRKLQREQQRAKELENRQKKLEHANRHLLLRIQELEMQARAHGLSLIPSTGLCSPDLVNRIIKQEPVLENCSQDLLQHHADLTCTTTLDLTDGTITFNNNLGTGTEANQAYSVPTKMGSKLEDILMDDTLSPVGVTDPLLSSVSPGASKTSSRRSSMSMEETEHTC

[8] = target: T6, High affinity choline transporter 1 (Homo sapiens, UniProt Q9GZV3); test: human choline transporter blockers, potency – cell-based, 5-point CRC, membrane potential dye, dose response (AID 504840); format: functional
T6 sequence (Q9GZV3 whole entry): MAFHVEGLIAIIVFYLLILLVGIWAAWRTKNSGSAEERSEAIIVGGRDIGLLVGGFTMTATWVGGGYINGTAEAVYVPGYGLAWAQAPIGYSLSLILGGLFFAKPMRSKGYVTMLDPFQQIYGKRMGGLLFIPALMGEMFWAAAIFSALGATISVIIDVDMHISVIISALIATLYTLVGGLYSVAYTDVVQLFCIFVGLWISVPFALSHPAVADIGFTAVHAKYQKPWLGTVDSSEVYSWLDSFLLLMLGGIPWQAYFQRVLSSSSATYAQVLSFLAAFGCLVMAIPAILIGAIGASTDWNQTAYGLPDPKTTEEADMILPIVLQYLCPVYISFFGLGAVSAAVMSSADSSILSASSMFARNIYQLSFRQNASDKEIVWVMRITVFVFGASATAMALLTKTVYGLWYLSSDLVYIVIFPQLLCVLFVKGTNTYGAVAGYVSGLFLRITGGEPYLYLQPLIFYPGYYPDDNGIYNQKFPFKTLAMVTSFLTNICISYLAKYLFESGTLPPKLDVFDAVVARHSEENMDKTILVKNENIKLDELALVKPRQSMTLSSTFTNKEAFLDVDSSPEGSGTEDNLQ

Interleukin-8 [9] = target: T7, Interleukin-8 (Homo sapiens, UniProt P10145); test: Dose Response confirmation of uHTS small molecule hits for cystic fibrosis induced NFkb Inhibitors in a TNFa-induced IL8 counterscreen.; format: functional; settings: read-out: IC50_Mean
T7 sequence (P10145 whole entry): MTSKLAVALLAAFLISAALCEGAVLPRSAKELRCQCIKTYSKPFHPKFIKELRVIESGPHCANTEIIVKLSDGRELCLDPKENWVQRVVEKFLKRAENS

Interleukin-8 [10] = target: T7, Interleukin-8; test: Dose Response confirmation of uHTS small molecule hits for cystic fibrosis induced NFkb Inhibitors in a PAF-induced IL8 counterscreen.; format: functional; settings: read-out: IC50_Mean

Sphingosine 1-phosphate receptor 1, sequence (P21453 whole entry): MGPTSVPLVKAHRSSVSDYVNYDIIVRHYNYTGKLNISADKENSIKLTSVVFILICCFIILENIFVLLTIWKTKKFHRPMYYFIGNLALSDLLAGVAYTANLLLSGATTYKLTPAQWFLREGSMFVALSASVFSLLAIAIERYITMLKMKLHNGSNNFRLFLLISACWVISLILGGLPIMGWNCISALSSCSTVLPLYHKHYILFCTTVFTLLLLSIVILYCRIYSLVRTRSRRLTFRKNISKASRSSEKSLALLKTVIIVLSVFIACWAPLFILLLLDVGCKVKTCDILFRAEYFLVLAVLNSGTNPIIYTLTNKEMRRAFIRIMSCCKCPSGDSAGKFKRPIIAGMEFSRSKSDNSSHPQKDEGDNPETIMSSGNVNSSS
Melanin-concentrating hormone receptor 1, sequence (Q99705 whole entry): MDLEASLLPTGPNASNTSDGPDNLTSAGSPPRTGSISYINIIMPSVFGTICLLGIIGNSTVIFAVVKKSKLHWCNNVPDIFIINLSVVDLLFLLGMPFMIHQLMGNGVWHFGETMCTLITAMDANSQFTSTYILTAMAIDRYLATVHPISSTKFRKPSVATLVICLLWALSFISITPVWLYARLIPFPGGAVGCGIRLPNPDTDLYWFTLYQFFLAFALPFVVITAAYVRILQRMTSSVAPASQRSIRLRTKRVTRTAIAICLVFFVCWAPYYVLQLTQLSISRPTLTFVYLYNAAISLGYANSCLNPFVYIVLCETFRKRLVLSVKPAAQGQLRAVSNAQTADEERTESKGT
Sphingosine 1-phosphate receptor 4, sequence (O95977 whole entry): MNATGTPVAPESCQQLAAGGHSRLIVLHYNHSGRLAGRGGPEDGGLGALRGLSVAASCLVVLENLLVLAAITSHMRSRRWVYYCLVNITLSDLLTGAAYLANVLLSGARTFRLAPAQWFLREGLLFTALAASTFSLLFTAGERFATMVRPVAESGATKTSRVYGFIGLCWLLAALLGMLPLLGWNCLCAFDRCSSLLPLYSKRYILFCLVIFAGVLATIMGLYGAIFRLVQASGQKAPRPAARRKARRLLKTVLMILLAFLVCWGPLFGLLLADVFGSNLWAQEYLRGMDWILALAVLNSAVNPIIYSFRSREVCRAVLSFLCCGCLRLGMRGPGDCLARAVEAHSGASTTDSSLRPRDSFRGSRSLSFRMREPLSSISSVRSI

Structure (SMILES): COc1ccc(-c2noc(CN3CCCCC3c3nccn3C)n2)cc1 (stereo unspecified)
- IC50 [1]: > 43.8 µM (not active)
- IC50 [2]: > 35 µM (not active)
- IC50 [3]: > 43.8 µM (not active)
- IC50 [4]: > 35 µM (not active)

Structure (SMILES): O=C1c2ccccc2C(=O)N1CCCc1nc2ccccc2c(=O)n1CCCn1ccnc1
- EC50 (Estrogen receptor): 23.5 µM (active)

Structure (SMILES): CN(CCC#N)C(=O)COC(=O)c1ccccc1C(=O)c1ccc(Cl)c([N+](=O)[O-])c1
- IC50 [5]: 2.34 µM (active)
- IC50 [6]: 9.72 µM (active)
- AC50 [7]: 10.9 µM (active)
- IC50 [8]: 7.81 µM (active)
- IC50 (Interleukin-8 [9]): 43 µM (inactive)
- IC50 (Interleukin-8 [10]): 0.967 µM (active)
